Data reported in patent US10428043B2, “Green oxidation catalytic system” (TRUSTEES OF BOSTON UNIVERSITY, priority 2014, dated 2019).
Several values for one entry are separate records, joined by “and”; a condition that tells them apart may be missing. Identical values can stand only once. Like-named read-outs stand apart in the source and are kept apart here.

Experiments:
[1] = Reactivity with α-KG, O2 and 9,10-dihydroanthracene (GC-FID); details: O2, [Fe] 10.1 μM
Description: (§1) Reactivity Studies. […] (10-20 mM).
(17) with α-KG, 02, and 9,10-dihydroanthracene.

[2] = Room temperature O2 reactivity of ferrous complexes followed by UV/vis
Description: The solution was transferred to an anaerobic UV/vis cell and sealed. An initial spectrum was obtained of the ferrous complex, and then the solution was exposed to the air. Spectra were recorded every minute for the first two minutes and then every 5-30 minutes after that for seven hours. The absorbance was monitored at 350 nm to follow formation of the oxidized complex.
This solution was then transferred to an anaerobic UV/vis cell and sealed. An initial spectrum was obtained of the ferrous complex, and then the solution was exposed to the air. Spectra were collected every minute for the first 30 minutes and then every 5-20 minutes after that for 2 hours. The absorbance was monitored at 315 nm to follow formation of the oxidized complex.

[3] = Reactivity with α-KG, O2 and cyclohexene (GC); details: Cyclohexene
[4] = Low-temperature stopped-flow kinetics of binding of α-KG to 17; details: 17 + α-KG
[5] = Reactivity with α-KG, O2 and 2,4-di-tert-butyl phenol (GC-FID); details: O2, [Fe] 9.6 μM
Description: as §1

[6] = Reactivity with α-KG, O2 and cyclooctane (GC-MS); details: Cyclooctane
Description: as §1

[7] = Low-temperature stopped-flow kinetics of binding of p-CH3-BF to 17; details: 17 + p-CH3-BF
[8] = cited from earlier work
[9] = Cyclic voltammetry, redox potentials; type: physicochemical
Description: All reagents and solvents used were purchased from commercial sources and used as received unless otherwise noted. Prior to use, methanol (Pharmco-Aaper) was distilled over magnesium metal, dimethyl sulfoxide (Fisher Scientific) was distilled over calcium hydride, triethylamine was distilled over sodium metal and unstabilized dichloromethane (Fisher Scientific) was distilled over calcium hydride. Ferrocene was purified by sublimation for use as a reference for electrochemical analyses. All manipulations involving ferrous complexes were carried out in an inert atmosphere glovebox (M. Braun, Stratham, N.H.) with distilled and thoroughly degassed solvents. UV/Vis spectra were collected using a Hewlett Packard Spectrometer (8453). IR spectra were collected using a Thermo Nicolet AVATAR 330-FT-IR. Cyclic voltammetry experiments were performed using a Princeton Applied Research model 273 potentiostat with a glassy carbon working electrode, a silver wire reference electrode and a platinum wire counter electrode. Electron Paramagnetic Resonance (EPR) spectra were collected on a Bruker ESP-300E spectrometer operating at 9.460 GHz. NMR spectra were recorded at 25° C. using a Varian spectrometer operating at 400 MHz with all chemical shifts referenced to SiMe4. Iron concentrations were determined using a Varian AA240Z Atomic Absorption Spectrometer.
Cyclic voltammetry was performed inside an inert atmosphere (N2) box, with degassed DMSO as the solvent and tetra-N-butylammonium hexafluorophosphate as the supporting electrolyte (0.2M). The ferrocenium/ferrocene couple was used as an internal reference; reduction potential values were corrected by assigning the ferrocenium/ferrocene couple to 0.64 V versus NHE (Zanello, P. Inorganic Electrochemistry; The Royal Society of Chemistry: Cambridge, 2003). Chloride titration experiments were performed by collecting CV data after the addition of one and two 50 μL aliquots of 204 mM [NEt4][Cl] to 3.0 mL of 3.4 mM [Fe^II(N2O1py)(Cl)2]^− (concentration determined using flame atomic absorption spectroscopy) and correcting the potential with reference to the ferrocenium/ferrocene couple.
It should be noted that these redox potentials were determined in the absence of excess halide, and further CV studies will be performed in the presence of excess halide for all derivatives of the N2O1py system.

[10] = Catalytic oxidation of methanol to formaldehyde with α-KG and O2 (Nash assay); details: for Total TON / TON: Methanol; for TON: product Formaldehyde
[11] = vs. NHE, quasi-reversible; Thesis of Tarves 2012; cited from earlier work
[12] = Low-temperature stopped-flow kinetics of adduct complexes with dioxygen; details: −85° C.
Description: Stopped-flow Spectroscopy and Data analysis.
Kinetic studies of [Fe^II(N2O1)(α-KG)(CH3OH)]^− and [Fe^II(N2O1)(p-X-BF)(CH3OH)]^− adduct complexes with dioxygen. Low-temperature stopped flow studies of this reaction were performed.
Order dependence analysis.
The kinetic model was built by starting from simple two- and three-exponential processes.
Stoichiometry of the equations for the proposed model in FIG. 29: […]

[13] = calculated from redox potentials for the one-electron transfer between iron and dioxygen
[14] = [24] 1.0 mM, O2 5 mM, benzoate 3.1 mM
[15] = complex 0.94-1.1 mM, O2 5 mM, methanol

CN(C)CCN(C)CC(=O)[O-].[Cl-].[Cl-].[Fe+2].[Na+] [compound 17, [Fe^II(N2O1)Cl2][Na]]
Total TON [1]: 128 | TON ([1]; product Anthracene): 54 | TON ([1]; product Anthraquinone): 26 | TON ([1]; product Anthrone): 21 | time for formation of the diferric oxo-bridged product on reaction with O2 ([2]; methanol): ~6 h | Total TON ([3]; O2, [Fe] 9.6 μM): 520 | Total TON ([3]; O2, [Fe] 9.6 μM + TEMPO): 414 | TON ([3]; O2, [Fe] 9.6 μM + TEMPO (6 × 10^4 excess), product Cyclohexene oxide): 53 | TON ([3]; O2, [Fe] 9.6 μM + TEMPO, product 2-Cyclohexen-1-ol): 240 | TON ([3]; O2, [Fe] 9.6 μM + TEMPO, product 2-Cyclohexen-1-one): 60 | TON ([3]; O2, [Fe] 9.6 μM, product 2-Cyclohexen-1-ol): 249 | TON ([3]; O2, [Fe] 9.6 μM, product 2-Cyclohexen-1-one): 70 | TON ([3]; O2, [Fe] 9.6 μM, product Cyclohexene oxide): 132 | k15 ([4]; methanol, −85° C.): 9.6 M⁻¹ s⁻¹ and 10 ± 0.2 M⁻¹ s⁻¹ | k16 ([4]; methanol, −85° C.): 1.7 s⁻¹ and 1.7 ± 0.5 s⁻¹ | k17 ([4]; methanol, −85° C.): 0.53 s⁻¹ and 0.5 ± 0.1 s⁻¹ | ΔH^‡ of k15 ([4]; −85 to −70° C.): 8.6 ± 0.48 kcal/mol | ΔH^‡ of k16 ([4]; −85 to −70° C.): 12 ± 1.2 kcal/mol | ΔH^‡ of k17 ([4]; −85 to −70° C.): 11.2 ± 1.4 kcal/mol | ΔS^‡ of k16 ([4]; −85 to −70° C.): 31.3±23 J mol^−1 K^−1 and 31 ± 23 J mol^−1 K^−1 | ΔS^‡ of k17 ([4]; −85 to −70° C.): 3 ± 1 J mol^−1 K^−1 | Total TON [5]: 619 | TON ([5]; product 3,3′-5,5′-terta-t-butyl-2,2′-dihydroxybiphenyl): 619 | Total TON ([6]; Air, [Fe] 1.1 μM): 317 | TON ([6]; Air, [Fe] 1.1 μM, product Cyclooctanol): 189 | TON ([6]; Air, [Fe] 1.1 μM, product Cyclooctanone): 64 | Total TON ([6]; O2, [Fe] 1.1 μM): 305 | TON ([6]; O2, [Fe] 1.1 μM, product Cyclooctanol): 182 | TON ([6]; O2, [Fe] 1.1 μM, product Cyclooctanone): 62 | Total TON ([6]; O2, [Fe] 9.7 μM): 40 | TON ([6]; O2, [Fe] 9.7 μM, product Cyclooctanol): 24 | TON ([6]; O2, [Fe] 9.7 μM, product Cyclooctanone): 7.8 | k15 ([7]; methanol, −85° C.): 45.3 M⁻¹ s⁻¹ and 45 ± 5 M⁻¹ s⁻¹ | k16 ([7]; methanol, −85° C.): 12 ± 1 s⁻¹ | k17 ([7]; methanol, −85° C.): 1.2 ± 0.1 s⁻¹ | ΔH^‡ of k15 ([7]; −85 to −70° C.): 8.37 ± 0.48 kcal/mol | ΔH^‡ of k16 ([7]; −85 to −70° C.): 10 ± 2.2 kcal/mol | ΔH^‡ of k17 ([7]; −85 to −70° C.): 9.08 ± 0.24 kcal/mol | ΔS^‡ of k16 ([7]; −85 to −70° C.): 1.5 ± 0.9 J mol^−1 K^−1 | ΔS^‡ of k17 ([7]; −85 to −70° C.): 36.9±15 J mol^−1 K^−1 and 37 ± 15 J mol^−1 K^−1 | solubility ([8]; DMF and DMSO): only slightly soluble | solubility ([8]; other common polar and nonpolar aprotic solvents, including CH3CN, CH2Cl2, THF, Et2O, toluene and ethyl acetate): insoluble | solubility ([8]; protic solvents): soluble | E1/2 ([9]; DMSO, glassy carbon working electrode, absence of excess halide): 159 mV | Keq [9, 13]: 1.1 × 10^−8 | ΔG° [9, 13]: 45 kJ | E1/2 ([9]; no added halide, in mV): +159 | Total TON ([10]; O2, [Fe] 1.0 μM): 285 | TON ([10]; O2, [Fe] 1.0 μM): 285 | Total TON ([10]; O2, [Fe] 6.2 μM): 54 | TON ([10]; O2, [Fe] 6.2 μM): 54 | Total TON ([10]; O2, [Fe] 8.0 μM): 36 | TON ([10]; O2, [Fe] 8.0 μM): 36 | Total TON ([10]; O2, [Fe] 12.5 μM): 22 | TON ([10]; O2, [Fe] 12.5 μM): 22 | Total TON ([10]; O2, [Fe] 100 μM): 3.5 | TON ([10]; O2, [Fe] 100 μM): 3.5 | Total TON ([10]; O2, [Fe] 200 μM): 2.1 | TON ([10]; O2, [Fe] 200 μM): 2.1 | Total TON ([10]; O2, [Fe] 300 μM): 1.3 | TON ([10]; O2, [Fe] 300 μM): 1.3 | Total TON ([10]; O2, [Fe] 500 μM): 0.82 | TON ([10]; O2, [Fe] 500 μM): 0.82 | Total TON ([10]; O2, [Fe] 2500 μM): 0.46 | TON ([10]; O2, [Fe] 2500 μM): 0.46 | Total TON ([10]; O2, [Fe] 5000 μM): 0.39 | TON ([10]; O2, [Fe] 5000 μM): 0.39

CN(C)CCN(C)CC(=O)[O-].CO.O=C([O-])C(=O)c1ccccc1.[Fe+2] [compound 24, [Fe^II(N2O1)(p-H-BF)]]
rate of room temperature reactivity with O2 (time) [2]: ~200 min | E1/2 [11]: 60 mV | k′1 ([12]; [24] 0.47 mM, O2 5 mM): 8.5 ± 0.2 s⁻¹ | k′2 ([12]; [24] 0.47 mM, O2 5 mM): 170 ± 8 M⁻¹ s⁻¹ | k′2obs ([12]; [24] 0.47 mM, O2 5 mM): 0.9 ± 0.04 s⁻¹ | k′3 ([12]; [24] 0.47 mM, O2 5 mM): 21 ± 0.06 s⁻¹ | k′4 ([12]; [24] 0.47 mM, O2 5 mM): 0.2 ± 0.01 s⁻¹ | k′2obs ([12]; [24] 0.94 mM, O2 5 mM): 0.13 ± 0.02 s⁻¹ | k′1 [12, 14]: 0.04 ± 0.01 s⁻¹ | k′2 [12, 14]: 2900 ± 500 M⁻¹ s⁻¹ | k′3 [12, 14]: 0.25 ± 0.05 s⁻¹ | k′4obs [12, 14]: 1.1 ± 0.2 s⁻¹ | k′1 ([12]; [24] 1.34 mM, O2 2.5 mM): 7 ± 1.2 s⁻¹ | k′2obs ([12]; [24] 1.34 mM, O2 2.5 mM): 0.2 ± 0.1 s⁻¹ | k′3 ([12]; [24] 1.34 mM, O2 2.5 mM): 14 ± 6 s⁻¹ | k′4 ([12]; [24] 1.34 mM, O2 2.5 mM): 0.2 ± 0.03 s⁻¹ | k′1 ([12]; [24] 1.34 mM, O2 3.5 mM): 9 ± 1.1 s⁻¹ | k′2obs ([12]; [24] 1.34 mM, O2 3.5 mM): 0.5 ± 0.2 s⁻¹ | k′3 ([12]; [24] 1.34 mM, O2 3.5 mM): 16 ± 4 s⁻¹ | k′4 ([12]; [24] 1.34 mM, O2 3.5 mM): 0.3 ± 0.09 s⁻¹ | k′1 ([12]; [24] 1.34 mM, O2 5 mM): 6.1 ± 0.9 s⁻¹ and 8 ± 0.9 s⁻¹ | k′2 ([12]; [24] 1.34 mM, O2 5 mM): 150 ± 5 M⁻¹ s⁻¹ | k′3 ([12]; [24] 1.34 mM, O2 5 mM): 20 ± 1.1 s⁻¹ and 21 ± 5 s⁻¹ | k′1 [12, 15]: 7.8 ± 1.0 s⁻¹ | k′3 [12, 15]: 20 ± 0.9 s⁻¹ | k′4 (k′4obs) [12, 15]: 0.4 ± 0.03 s⁻¹ | TON predicted from the line of best fit in FIG. 2 for the α-KG adduct complex ([10]; iron complex 0.47 mM): 0.9 | TON predicted from the line of best fit in FIG. 2 for the α-KG adduct complex ([10]; iron complex 0.94 mM): 0.6 | TON predicted from the line of best fit in FIG. 2 for the α-KG adduct complex ([10]; iron complex 1.34 mM): 0.3
